# Test results as given in patent publication US8822542B2, “Isoketal scavengers and mitigation of disorders involving oxidative injury” (Vanderbilt University, priority 2005, dated 2014).
# How the values were obtained:
# [1] = molecular target: mutant Na+ channel (F1760A) (Homo sapiens, UniProt Q14524, F1760A); assay: Whole-cell Na current recording, F1760A mutant Na+ channel; type: cell-based; details: flecainide 10 μM, IsoK 10 μM
# Description: A. Use-dependent flecainide block was examined using the protocol shown. A train of 500 depolarizing pulses with 10 msec duration at −20 mV were applied at a frequency of 5 Hz. Currents are plotted from every twentieth pulse. Upper panel represents the current in the presence of flecainide (1 μM). Lower panel represents INa in the presence of flecainide and IsoK (10 μM). B. Depolarization-dependent effects are summarized as a function of the pulse number. All current amplitudes are normalized to that of the first depolarization and every tenth pulse is plotted. […] For these experiments flecainide concentration was increased to 10 μM.
# Where indicated, cells were co-transfected with an equimolar ratio of Na channel human β1 subunit. cDNAs were transiently transfected into HEK-293 cells using lipofectamine (GIBCO-BRL, Gaithersburg, Md.), and were cultured in MEM medium supplemented with 10% fetal bovine serum and 1% pen-strep in a 5% CO2 incubator at 37° C. for 1 to 4 days.
# The effects of IsoK were tested using the same protocol as FIG. 39A. In this experiment, the concentration of flecainide was increased to 10 μM to exaggerate use-dependence.
# [2] = test system: patients convalescing from myocardial infarction; details: in vivo; cited from earlier work
# [3] = molecular target: human cardiac Na channel (hH1, or SCN5A) (Homo sapiens, UniProt Q14524); assay: Whole-cell Na current recording, wild-type hH1 expressed in HEK-293 cells; details: for P500/P1 (use-dependence): 5 Hz, 500 pulses; for V1/2 voltage-dependence of inactivation (availability): HEK-293, t-BHP 1 mM, Iso-K 10 μM
# human cardiac Na channel (hH1, or SCN5A), sequence (Q14524 whole entry): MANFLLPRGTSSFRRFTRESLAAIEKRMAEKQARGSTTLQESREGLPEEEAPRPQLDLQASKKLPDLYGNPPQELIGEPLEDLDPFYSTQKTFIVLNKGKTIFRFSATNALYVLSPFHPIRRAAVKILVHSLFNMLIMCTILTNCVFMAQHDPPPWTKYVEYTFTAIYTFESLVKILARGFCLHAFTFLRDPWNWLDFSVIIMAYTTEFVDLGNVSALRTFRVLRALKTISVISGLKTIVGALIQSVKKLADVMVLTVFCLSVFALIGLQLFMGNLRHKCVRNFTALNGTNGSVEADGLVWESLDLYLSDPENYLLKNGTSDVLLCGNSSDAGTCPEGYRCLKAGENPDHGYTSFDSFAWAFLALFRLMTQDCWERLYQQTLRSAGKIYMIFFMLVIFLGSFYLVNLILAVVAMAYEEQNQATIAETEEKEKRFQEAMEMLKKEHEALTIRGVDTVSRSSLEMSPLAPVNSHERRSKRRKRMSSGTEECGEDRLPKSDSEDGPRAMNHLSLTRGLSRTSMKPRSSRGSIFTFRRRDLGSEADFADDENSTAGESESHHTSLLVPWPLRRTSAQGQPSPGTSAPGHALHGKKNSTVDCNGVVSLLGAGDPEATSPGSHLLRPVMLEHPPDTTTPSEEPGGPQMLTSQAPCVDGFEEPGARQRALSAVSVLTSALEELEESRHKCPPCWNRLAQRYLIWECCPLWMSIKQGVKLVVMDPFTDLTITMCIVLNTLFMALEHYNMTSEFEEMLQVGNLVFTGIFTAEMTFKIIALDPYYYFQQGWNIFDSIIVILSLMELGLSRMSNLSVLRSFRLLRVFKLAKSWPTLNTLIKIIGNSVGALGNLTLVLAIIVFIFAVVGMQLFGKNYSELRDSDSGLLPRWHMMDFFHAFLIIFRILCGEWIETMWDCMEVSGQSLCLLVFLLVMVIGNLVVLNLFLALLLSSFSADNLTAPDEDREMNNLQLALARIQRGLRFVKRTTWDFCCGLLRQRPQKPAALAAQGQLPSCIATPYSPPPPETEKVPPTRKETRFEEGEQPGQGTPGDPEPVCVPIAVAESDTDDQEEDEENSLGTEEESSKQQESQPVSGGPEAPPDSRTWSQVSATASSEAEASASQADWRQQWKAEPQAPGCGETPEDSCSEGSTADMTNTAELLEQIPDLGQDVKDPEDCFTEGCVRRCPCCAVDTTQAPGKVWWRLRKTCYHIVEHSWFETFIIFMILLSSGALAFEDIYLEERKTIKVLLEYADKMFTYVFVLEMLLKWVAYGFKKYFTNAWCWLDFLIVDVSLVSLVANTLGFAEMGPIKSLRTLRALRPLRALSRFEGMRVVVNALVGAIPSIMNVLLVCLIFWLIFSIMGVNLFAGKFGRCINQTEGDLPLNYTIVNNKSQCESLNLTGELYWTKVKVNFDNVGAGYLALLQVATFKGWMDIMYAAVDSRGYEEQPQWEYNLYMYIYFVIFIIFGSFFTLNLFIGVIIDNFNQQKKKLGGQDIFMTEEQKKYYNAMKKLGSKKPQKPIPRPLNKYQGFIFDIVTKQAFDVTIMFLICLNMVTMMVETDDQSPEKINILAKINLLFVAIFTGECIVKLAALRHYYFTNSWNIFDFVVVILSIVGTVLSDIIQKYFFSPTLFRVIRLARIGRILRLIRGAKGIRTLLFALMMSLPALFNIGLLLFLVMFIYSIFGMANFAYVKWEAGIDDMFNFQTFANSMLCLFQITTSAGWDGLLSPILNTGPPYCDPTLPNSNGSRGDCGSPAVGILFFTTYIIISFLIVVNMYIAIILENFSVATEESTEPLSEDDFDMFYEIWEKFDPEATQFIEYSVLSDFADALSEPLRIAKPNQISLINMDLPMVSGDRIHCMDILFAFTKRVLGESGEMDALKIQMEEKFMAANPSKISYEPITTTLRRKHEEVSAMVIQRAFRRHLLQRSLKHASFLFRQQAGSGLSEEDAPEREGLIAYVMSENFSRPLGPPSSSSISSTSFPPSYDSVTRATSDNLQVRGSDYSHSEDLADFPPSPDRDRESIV
# [4] = test system: HEK-293 cells; assay: Lipid peroxidation products in HEK 293 cells treated with t-BHP; type: cell-based; details: exposure of HEK cells
# Description: Synthesis and analysis of reactive products of lipid peroxidation: E2-isoketal was synthesized as previously described. The present inventors used mass spectrometry to analyze F2-isoprostanes formed following treatment of HEK 293 cells with t-BHP. For this assay, HEK-293 cells (1×10^6) were treated for 30 minutes at room temperature with buffer containing 100 μM t-BHP, or 100 μM t-BHP and 200 μM FeCl2. Total (free and esterified) F2-isoprostanes (F2-IsoPs) esterified in cellular lipids were then quantified by a highly accurate GC/NICI/MS assay as described previously.
# [5] = molecular target: native Na+ channels in HL-1 cells (Mus musculus, UniProt Q9JJV9); details: for Na channel availability: HL-1, preincubation; for V1/2 availability of native Na+ channels: HL-1, t-BHP 2 mM, Iso-K 10 μM
# native Na+ channels in HL-1 cells, sequence (Q9JJV9 whole entry): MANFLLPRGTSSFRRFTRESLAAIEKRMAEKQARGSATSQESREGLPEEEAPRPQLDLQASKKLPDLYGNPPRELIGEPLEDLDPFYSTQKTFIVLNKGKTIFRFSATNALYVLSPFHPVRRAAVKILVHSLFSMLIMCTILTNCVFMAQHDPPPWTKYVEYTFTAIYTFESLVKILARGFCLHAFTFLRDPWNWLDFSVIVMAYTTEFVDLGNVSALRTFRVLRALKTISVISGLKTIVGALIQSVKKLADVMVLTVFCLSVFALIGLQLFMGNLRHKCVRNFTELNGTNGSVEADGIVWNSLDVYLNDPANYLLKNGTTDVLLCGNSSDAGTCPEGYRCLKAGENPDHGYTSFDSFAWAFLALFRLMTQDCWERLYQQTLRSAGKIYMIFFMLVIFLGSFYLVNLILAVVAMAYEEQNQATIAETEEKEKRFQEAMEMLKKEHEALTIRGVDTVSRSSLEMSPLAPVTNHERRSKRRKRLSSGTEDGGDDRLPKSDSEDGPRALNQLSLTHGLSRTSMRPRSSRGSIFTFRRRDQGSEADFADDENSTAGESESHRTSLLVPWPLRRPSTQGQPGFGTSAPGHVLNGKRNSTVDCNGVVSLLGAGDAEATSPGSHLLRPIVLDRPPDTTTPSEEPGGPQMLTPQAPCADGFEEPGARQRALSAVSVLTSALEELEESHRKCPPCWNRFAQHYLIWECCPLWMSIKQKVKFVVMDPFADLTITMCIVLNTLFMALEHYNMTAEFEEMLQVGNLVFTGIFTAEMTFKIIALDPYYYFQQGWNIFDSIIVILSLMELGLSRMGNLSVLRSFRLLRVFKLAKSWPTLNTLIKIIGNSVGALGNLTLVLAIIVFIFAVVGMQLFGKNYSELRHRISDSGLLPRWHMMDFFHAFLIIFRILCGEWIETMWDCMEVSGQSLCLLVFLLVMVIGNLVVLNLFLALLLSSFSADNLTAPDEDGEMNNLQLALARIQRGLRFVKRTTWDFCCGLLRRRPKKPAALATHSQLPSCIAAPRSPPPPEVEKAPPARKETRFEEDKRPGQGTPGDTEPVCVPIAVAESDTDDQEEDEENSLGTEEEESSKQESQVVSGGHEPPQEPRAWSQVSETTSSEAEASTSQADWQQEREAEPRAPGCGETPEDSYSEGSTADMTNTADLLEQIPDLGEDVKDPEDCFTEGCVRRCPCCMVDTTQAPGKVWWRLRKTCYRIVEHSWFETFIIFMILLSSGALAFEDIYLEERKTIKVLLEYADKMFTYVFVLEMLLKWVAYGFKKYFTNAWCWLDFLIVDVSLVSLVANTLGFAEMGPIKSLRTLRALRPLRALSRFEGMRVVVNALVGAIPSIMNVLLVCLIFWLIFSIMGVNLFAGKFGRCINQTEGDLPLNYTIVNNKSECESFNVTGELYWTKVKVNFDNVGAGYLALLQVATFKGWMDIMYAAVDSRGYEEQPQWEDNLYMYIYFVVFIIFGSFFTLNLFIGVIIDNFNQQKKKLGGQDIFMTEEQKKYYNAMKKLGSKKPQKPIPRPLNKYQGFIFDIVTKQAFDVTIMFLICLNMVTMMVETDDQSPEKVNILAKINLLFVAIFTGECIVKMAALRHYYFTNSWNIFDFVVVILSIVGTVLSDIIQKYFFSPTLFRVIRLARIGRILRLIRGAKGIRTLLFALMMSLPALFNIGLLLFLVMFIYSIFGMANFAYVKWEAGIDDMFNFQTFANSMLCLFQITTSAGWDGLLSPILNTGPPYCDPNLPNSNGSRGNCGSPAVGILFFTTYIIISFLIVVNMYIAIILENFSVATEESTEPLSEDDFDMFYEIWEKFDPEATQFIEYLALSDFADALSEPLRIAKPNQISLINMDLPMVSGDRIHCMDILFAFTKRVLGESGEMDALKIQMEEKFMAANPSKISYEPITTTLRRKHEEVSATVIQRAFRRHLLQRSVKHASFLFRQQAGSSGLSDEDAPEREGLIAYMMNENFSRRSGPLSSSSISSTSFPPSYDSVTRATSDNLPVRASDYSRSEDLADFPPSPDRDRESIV
# [6] = molecular target: bovine serum albumin (Bos taurus, UniProt P02769); assay: Disappearance of free IsoK and HNE during incubation with bovine serum albumin (rate of adduction); type: biochemical
# bovine serum albumin, sequence (P02769 25-607): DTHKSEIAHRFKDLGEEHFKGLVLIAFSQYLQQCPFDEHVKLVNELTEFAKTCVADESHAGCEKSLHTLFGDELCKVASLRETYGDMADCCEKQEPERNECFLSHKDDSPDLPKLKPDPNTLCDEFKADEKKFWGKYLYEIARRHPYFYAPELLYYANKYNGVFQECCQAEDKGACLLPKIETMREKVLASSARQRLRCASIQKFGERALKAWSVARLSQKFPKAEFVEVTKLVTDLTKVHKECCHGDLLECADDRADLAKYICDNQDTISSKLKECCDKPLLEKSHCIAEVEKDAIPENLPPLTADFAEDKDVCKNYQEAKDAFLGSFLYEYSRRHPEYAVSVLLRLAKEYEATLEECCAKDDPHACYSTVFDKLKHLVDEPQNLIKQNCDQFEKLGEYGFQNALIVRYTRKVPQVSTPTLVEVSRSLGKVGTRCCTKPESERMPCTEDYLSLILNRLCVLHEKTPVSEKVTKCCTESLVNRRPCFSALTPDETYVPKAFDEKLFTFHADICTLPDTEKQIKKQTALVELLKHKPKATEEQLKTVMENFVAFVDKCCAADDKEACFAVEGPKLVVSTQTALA
# Description: Oxidation of AA in vitro produces both F2-IsoPs and IsoKs in nearly equivalent amounts. However, comparison of the formation of F2-IsoPs and IsoKs in vivo is more complex, because IsoKs rapidly adduct to lysyl residues on proteins. […] In striking contrast, approximately 50% of the HNE still remained in free form after 80 minutes.
# [7] = molecular target: ovalbumin (OVA) (Gallus gallus, UniProt P01012); assay: Protein cross-linking after incubation with ovalbumin; type: biochemical; details: 10 molar equivalents, about 4 hours
# ovalbumin (OVA), sequence (P01012 whole entry, species assumed): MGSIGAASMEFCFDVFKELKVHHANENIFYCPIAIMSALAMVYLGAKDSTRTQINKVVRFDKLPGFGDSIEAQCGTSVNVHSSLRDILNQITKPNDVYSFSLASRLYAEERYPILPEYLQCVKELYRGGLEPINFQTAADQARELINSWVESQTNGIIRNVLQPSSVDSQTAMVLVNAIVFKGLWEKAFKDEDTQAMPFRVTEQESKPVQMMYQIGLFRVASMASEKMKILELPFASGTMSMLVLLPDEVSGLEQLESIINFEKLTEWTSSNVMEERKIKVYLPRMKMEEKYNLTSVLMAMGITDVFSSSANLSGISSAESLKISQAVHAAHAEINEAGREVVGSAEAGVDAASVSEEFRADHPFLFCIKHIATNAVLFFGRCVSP
# From the text: The above findings explained why repeated attempts in the past to detect free IsoKs during oxidation of biological systems in vitro, e.g. microsomes, and in animal models of oxidant injury in vivo were unsuccessful because they are rapidly sequestered as protein adducts. Therefore, the present inventors undertook to determine the identity of IsoK lysyl adducts as a basis for development of methodology to detect IsoK and NeuroK adducts in biological tissues in their adducted form. […] Reversible Schiff base adducts were also identified. Schiff base adducts are formed rapidly and then decline over time, whereas lactam adducts accumulate slowly over time. Lysyl protein adducts of IsoKs and NeuroKs are analyzed by LC/MS/MS following enzymatic digestion of proteins to individual amino acids. Enzymatic digestion of proteins is necessary because the adducts degrade during acid hydrolysis. However, this analysis is further complicated by the proclivity of IsoKs and NKs to induce protein crosslinking, which is resistant to hydrolysis. […] This is a dramatic example of the differential effects of IsoKs/NKs and HNE on protein adduction and cross-linking.
# [8] = test system: proteasome chymotrypsin-like activity; assay: Inhibition of chymotrypsin-like activity in RAW cell lysates; type: biochemical
# From the text: When the mechanism of inhibition id analyzed, both competitive and non-competitive mechanism are found. Therefore, in addition to adducted proteins inhibiting the proteasome, IsoKs may cause inhibition by directly adducting to the proteasome itself, or to proteins that regulate proteasome activity.
# [9] = test system: proteasome; assay: Proteasome inhibition in P19 neuroglial cultures; type: cell-based
# From the text: (§1) Because inhibitors of proteasome function induce neuronal death, the present inventors examined the toxicity of IsoKs.
# [10] = test system: P19 neuroglial cultures; assay: Cell death in P19 neuroglial cultures; type: cell-based; details: read-out: LC50 cell death
# From the text: as §1
# [11] = test system: recombinant human tau; assay: PHF-tau formation, dot blot with Alz50; type: biochemical; details: equimolar IsoK and tau, within 2 hrs
# Description: Synthetic IsoK to equimolar amounts of recombinant human tau was added and the amount of PHF-tau formation by dot blot analysis was determined with the monoclonal antibody Alz50 (a gift from Dr. Peter Davis). Alz50 recognizes an epitope unique to PHF-tau. […] (FIG. 33).
# [12] = alone, flecainide 1 μM, IsoK 10 μM
molecule,measurement,setting,value
O=C(NCC1CCCCN1)c1cc(OCC(F)(F)F)ccc1OCC(F)(F)F (stereo not drawn) [flecainide],P500/P1 (use-dependent block),[1],0.92±0.03
same,mortality increase,[2],three-fold
same,"A1 (amplitude of the fast component, recovery from inactivation)",[3],0.80 ± 0.04
same,"A2 (amplitude of the slow component, recovery from inactivation)",[3],0.20 ± 0.04
same,P500/P1 (use-dependence),[3]; [12],0.87±0.04
same,V1/2 voltage-dependence of inactivation (availability),[3]; flecainide 1 μM,−86.4±2.1 mV
same,P500/P1 (use-dependent block),"[3]; WT, flecainide 10 μM, IsoK 10 μM",0.38±0.05
same,V1/2 voltage-dependence of inactivation,[3]; flecainide 1 μM in the presence of IsoK 10 μM,−99.3±2.3 mV
"CC(C)(C)OO [t-BHP, tert-butyl hydroperoxide]",formation of lipid peroxidation products,[4],abundant quantities of F2-IsoPs and IsoK
same,Na channel availability,[5],reduced Na channel availability
same,V1/2 availability of native Na+ channels,[5],−82.8±1.7 mV
E2-isoketal,adduction to albumin,[6],essentially complete within a few minutes
same,cross-linking of ovalbumin,[7],extensive cross-linked high molecular weight oligimers
same,IC50,[8],2100 nM
same,IC50,[9],330 nM
same,CC50,[10],670 nM
same,PHF-tau formation (Alz50),[11],strong Alz50 immunoreactivity
same,Na channel availability,[5],reduced Na channel availability
same,V1/2 availability of native Na+ channels,[5],−82.0±1.7 mV
same,"A1 (amplitude of the fast component, recovery from inactivation)",[3],0.79 ± 0.04
same,"A2 (amplitude of the slow component, recovery from inactivation)",[3],0.21 ± 0.04
same,INa decay,[3],speeded the rate Of INa decay
same,V1/2 voltage-dependence of activation,[3],−41.6±1.5 mV
same,P500/P1 (use-dependence),[3]; [12],0.89±0.02
same,P500/P1 (use-dependence),[3]; in the presence of flecainide 1 μM,0.66±0.03
same,V1/2 voltage-dependence of inactivation (availability),[3]; flecainide 1 μM,−96.4±1.1 mV
same,activation of sodium channels,[3]; over a range of membrane potentials,no effect on the activation
